Source: US20020086835A1, “Use of adenosine deaminase inhibitors to treat systemic inflammatory response syndrome” (priority 2000, published 2002)

Experiments:
[1] = human blood; cited from earlier work
[2] = system: TNF-α; assay: Serum TNF-α by ELISA in rats with chronic peritoneal sepsis (200 mg/kg cecal slurry ip); format: in vivo, rat; conditions: septic rats, versus saline-treated septic group
Procedure: Studies were conducted to determine if manipulation of adenosine-mediated events would result in alterations in the TNF-α response in this model. At the time of sepsis induction, rats were treated in one of four ways. One group received only 0.9% normal saline as a vehicle control (No Rx; n=6). […] The third group received the adenosine deaminase inhibitor, erythro-9-(2-hydroxy-3-nonyl)adenine (EHNA; 1 μmole/kg+1 μmole/kg/hr; iv; n=3). A fourth group received the adenosine receptor antagonist 8-sulfophenyltheophylline (SPT; 400 μg/kg/8 hours; n=5).
Sepsis was induced under pentobarbital anesthesia (50 mg/kg) in each rat by intraperitoneal (ip) injection of 200 mg/kg rat cecal contents mixed as a slurry in 5% dextrose in water (D5W). […] Non-septic controls received an equivalent volume ip injection of D5W. Polyethylene catheters (Intramedic PE-50, Baxter) were inserted into the right internal jugular vein and right carotid artery. The jugular catheter was used for venous access (drug infusions; volume replacement, etc). The carotid catheter was used to obtain arterial blood samples, and to monitor arterial blood pressure and heart rate. The catheters were secured in their respective vessels, tunneled subcutaneously to exit in the interscapular region, and filled with heparinized saline (50 units/ml 0.9% normal saline). Incisions were closed in layers using 3-0 silk. Rats were allowed to recover from anesthetic and provided food and water ad libitum,
Serum and tissue tumor necrosis factor-α (TNF-α) concentrations were determined by enzyme-linked immunosorbant assay. Samples of serum, liver, and spleen were collected, rapidly weighed, and frozen in liquid nitrogen. On the day of assay, tissues are added to labeled tubes containing lysis buffer (volume=10 ml/gram wt. with 1:10 dilution) and kept on ice. The lysis buffer is 20 mM Tris (pH 7.4) containing […] phenylmethylsulfonylflouride (PMSF), […] leupeptin, 0.7 g/ml pepstatin, and 2.0 g/ml aprotinin to inhibit proteases. Samples were immediately homogenized using five 3 see bursts, washing grinding pistol (3×) between samples with phosphate buffered saline. Samples are then centrifuged for 20 min at 2200 RPM, 4° C. The supernatant was removed and used for TNF-α measurements. Briefly, each microplate well contained 50 μl of assay diluent. To each well, 50 μl of standard, control, or serum/homogenate supernatant sample were added and mixed on an orbital plate shaker. Plates were incubated at room temperature for 2 hours. Each well was then aspirated and washed with wash buffer 4 times. After final aspiration of wash buffer, 100 μl of rat TNF-α conjugate was added to each well. Wells were then covered and incubated for 2 hours at room temperature. At the end of the incubation, the aspiration/wash procedure was repeated 4 times, after which 100 μl of stabilized chromogen solution was added to each well. Next, plates were incubated for 45 minutes at room temperature in a dark area. After this final incubation period, 100 μl stopping solution was added to each well. Optical density of each well at […] was determined within 30 minutes using a Biotek Instruments EL312e microtiter plate reader. Concentrations of TNF-α were calculated from the standard curves.
At the time of sepsis induction, rats were treated in one of three ways. One group received only 0.9% normal saline as a vehicle control (VEH, n=6, where n is the number of rats). […] A third group received the adenosine receptor antagonist, 8-sulfophenyltheo-phylline (SPT; 400 μg/kg/8 h; n=5). Serum TNF-α (pg/ml) was determined at 4 and 24 hours after sepsis induction by ELISA.
Male SD rats (350-400 g) were made septic by IP introduction of a 200 mg/kg cecal slurry. […] TNF-α (pg/ml) was determined at 4 and 24 hours after sepsis induction by ELISA.

[3] = target: T1, adenosine deaminase (Homo sapiens, UniProt P00813); conditions: potency of inhibition of the enzyme
T1 sequence (P00813 1-363): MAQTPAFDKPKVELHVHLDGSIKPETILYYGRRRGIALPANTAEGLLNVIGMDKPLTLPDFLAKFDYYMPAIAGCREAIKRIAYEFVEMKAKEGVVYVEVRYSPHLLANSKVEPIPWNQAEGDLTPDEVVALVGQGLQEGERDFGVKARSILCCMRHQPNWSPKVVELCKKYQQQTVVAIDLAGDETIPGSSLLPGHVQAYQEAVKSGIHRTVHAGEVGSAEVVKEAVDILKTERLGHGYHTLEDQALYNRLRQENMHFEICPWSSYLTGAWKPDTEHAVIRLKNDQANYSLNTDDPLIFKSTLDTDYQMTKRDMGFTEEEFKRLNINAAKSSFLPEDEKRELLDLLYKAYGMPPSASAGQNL

[4] = target: T1, adenosine deaminase; conditions: read-out: Inhibitory constant for adenosine deaminase; cited from earlier work
[5] = system: adenosine deaminase; conditions: in perfusion medium, in the presence of 5′-amino-5′-deoxyadenosine; cited from earlier work

Activity relative to pentostatin (times less active) [3] | SMILES | Half life [1] [s] | Effect on serum TNF-α response to sepsis at 4 hours ([2]; 4 hours) | Effect on serum TNF-α response to sepsis at 24 hours ([2]; 24 hours) | Ki [4] [nM] | Increase of adenosine release [5] [fold]
– | Nc1ncnc2c1ncn2[C@@H]1O[C@H](CO)[C@@H](O)[C@H]1O [Adenosine] | < 1 | – | – | – | –
one thousand | CCCCCCC(C(C)O)n1cnc2c(N)ncnc21 (stereo not drawn) [EHNA, erythro-9-(2-hydroxy-3-nonyl)adenine] | – | attenuation of this response | attenuation of this response | 1 | 15
